From patent US10307413B2, “Tetrahydro- and dihydro-isoquinoline PRMT5 inhibitors and uses thereof” (Epizyme, Inc., priority 2013, dated 2019)
Where two headings read alike, the source gives them in different places.

Key:
[1] = system: symmetric di-methyl arginine in Z-138 cells; test: Z-138 Methylation Assay (In Cell Western for symmetric di-methyl arginine and DNA content); type: cell-based; details: Homo sapiens, read-out: ICW EC50
Outline: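 In-cell western: symmetric di-methyl arginine signal ratioed to DRAQ5 DNA content after 96 h compound exposure of Z-138 cells seeded at 50,000 cells/mL.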

[2] = target: PRMT5/MEP50 (Homo sapiens (Human), UniProt O14744); test: PRMT5 Biochemical Assay (PRMT5/MEP50 enzyme assay on peptide substrate, 3H-SAM Flashplate)
From the text: S-adenosylmethionine (SAM), S-adenosylhomocysteine (SAH), bicine, KCl, Tween20, dimethylsulfoxide (DMSO), bovine skin gelatin (BSG), and Tris(2-carboxyethyl)phosphine hydrochloride solution (TCEP) were purchased from Sigma-Aldrich at the highest level of purity possible. ^3H-SAM was purchase from American Radiolabeled Chemicals with a specific activity of 80 Ci/mmol. 384-well streptavidin Flashplates were purchased from PerkinElmer.
Peptide representative of human histone H4 residues 1-15 was synthesized with a C-terminal linker-affinity tag motif and a C-terminal amide cap by 21st Century Biochemicals.
The amplified genes were sublconed into pENTR/D/TEV (Life Technologies) and subsequently transferred by Gateway™ attL×attR recombination to pDEST8 baculovirus expression vector (Life Technologies).
Protein over-expression was accomplished by infecting exponentially growing Spodoptera frugiperda (SF9) cell culture at 1.2×10^6 cell/ml with a 5000 fold dilution of BIIC stock. Infections were carried out at 27° C. for 72 hours, harvested by centrifugation, and stored at −80° C. for purification.
Flag-PRMT5/6His-MeP50 was eluted with 300 mM Imidazole in the same buffer.
General Procedure for PRMT5/MEP50 Enzyme Assays on Peptide Substrates.
The assays were all performed in a buffer consisting of 20 mM Bicine (pH=7.6), 1 mM TCEP, 0.005% BSG, and 0.002% Tween20, prepared on the day of use. […] DMSO (1 ul) was added to Columns 11, 12, 23, 24, rows A-H for the maximum signal control and 1 ul of SAH, a known product and inhibitor of PRMT5/MEP50, was added to columns 11, 12, 23, 24, rows I-P for the minimum signal control. A cocktail (40 ul) containing the PRMT5/MEP50 enzyme and the peptide was added by Multidrop Combi (Thermo-Fisher). The compounds were allowed to incubate with PRMT5/MEP50 for 30 min at 25 degrees Celsius, then a cocktail (10 ul) containing ^3H-SAM was added to initiate the reaction (final volume=51 ul). […] The assays were stopped by the addition of non-radioactive SAM (10 ul) to a final concentration of 600 uM, which dilutes the ^3H-SAM to a level where its incorporation into the peptide substrate is no longer detectable. 50 ul of the reaction in the 384-well polypropylene plate was then transferred to a 384-well Flashplate and the biotinylated peptides were allowed to bind to the streptavidin surface for at least 1 hour before being washed three times with 0.1% Tween20 in a Biotek ELx405 plate washer. The plates were then read in a PerkinElmer TopCount plate reader to measure the quantity of ^3H-labeled peptide bound to the Flashplate surface, measured as disintegrations per minute (dpm) or alternatively, referred to as counts per minute (cpm).
[formula] [formula] Where dpm=disintegrations per minute, cmpd=signal in assay well, and min and max are the respective minimum and maximum signal controls.
[formula] [formula] Where top and bottom are the normally allowed to float, but may be fixed at 100 or 0 respectively in a 3-parameter fit. The Hill Coefficient normally allowed to float but may also be fixed at 1 in a 3-parameter fit. Y is the % inhibition and X is the compound concentration.

[3] = system: Z-138 cell line; test: Z-138 Proliferation Assay (Cell Titer Glo, 5 days); type: cell-based; details: Homo sapiens, 120 h, Z-138 cells, 5 days, read-out: Proliferation EC50
Outline: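 Viability via CellTiter-Glo luminescence (ATP) after 5-day incubation at 37 °C, 5% CO2. Compounds tested in triplicate, nine 3-fold steps, highest final concentration 20 μM in 0.2% DMSO; 50% inhibitory concentration by 4-parameter fit of normalized curves.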

Chain of PRMT5/MEP50 (O14744 other isoform, or with tags, fused parts or gaps): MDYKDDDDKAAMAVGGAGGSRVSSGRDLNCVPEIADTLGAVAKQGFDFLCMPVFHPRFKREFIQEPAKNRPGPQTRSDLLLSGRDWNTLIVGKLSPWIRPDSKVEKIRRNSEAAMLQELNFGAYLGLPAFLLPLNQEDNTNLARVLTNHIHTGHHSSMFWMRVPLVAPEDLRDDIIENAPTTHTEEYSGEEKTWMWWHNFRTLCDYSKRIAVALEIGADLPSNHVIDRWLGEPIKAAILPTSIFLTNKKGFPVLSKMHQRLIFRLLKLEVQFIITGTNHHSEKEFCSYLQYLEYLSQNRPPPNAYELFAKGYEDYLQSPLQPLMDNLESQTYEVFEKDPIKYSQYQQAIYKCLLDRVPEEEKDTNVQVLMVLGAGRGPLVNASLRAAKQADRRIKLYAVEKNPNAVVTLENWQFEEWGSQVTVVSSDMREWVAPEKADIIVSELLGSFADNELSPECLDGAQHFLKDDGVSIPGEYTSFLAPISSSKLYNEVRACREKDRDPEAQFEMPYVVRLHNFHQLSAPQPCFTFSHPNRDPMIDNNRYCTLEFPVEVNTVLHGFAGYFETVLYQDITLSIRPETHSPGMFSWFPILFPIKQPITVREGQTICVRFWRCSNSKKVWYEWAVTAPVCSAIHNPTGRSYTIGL
Chain of PRMT5/MEP50 (Q9BQA1 other isoform, or with tags, fused parts or gaps partner): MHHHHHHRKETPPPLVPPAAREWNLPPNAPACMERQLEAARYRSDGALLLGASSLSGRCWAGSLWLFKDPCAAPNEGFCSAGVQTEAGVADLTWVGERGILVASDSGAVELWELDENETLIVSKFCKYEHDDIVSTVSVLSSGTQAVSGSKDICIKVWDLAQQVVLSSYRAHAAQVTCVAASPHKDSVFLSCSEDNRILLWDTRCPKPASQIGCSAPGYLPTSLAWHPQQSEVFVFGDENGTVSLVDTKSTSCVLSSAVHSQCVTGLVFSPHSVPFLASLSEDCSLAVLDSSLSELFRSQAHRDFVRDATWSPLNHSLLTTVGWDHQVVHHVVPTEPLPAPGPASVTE

CN(C[C@H](O)CN1CCc2ccccc2C1)C(=O)c1cc(NC2COC2)ncn1 [Compound 364]
EC50 [1]: 101 to 1000 nM
IC50 [2]: 101 to 1000 nM
EC50 [3]: 1000 to 10000 nM

O=C(NC[C@H](O)CN1CCc2ccccc2C1)c1cc(N[C@@H]2CCOC2)ncn1 [Compound 365]
EC50 [1]: < 100 nM
IC50 [2]: < 100 nM
EC50 [3]: 101 to 1000 nM

O=C(NC[C@H](O)CN1CCc2ccccc2C1)c1cncc(NC2COC2)n1 [Compound 366]
EC50 [1]: 101 to 1000 nM
IC50 [2]: 101 to 1000 nM
EC50 [3]: > 20000 nM

O=C(NC[C@H](O)CN1CCc2ccccc2C1)c1ccc2cc(OCCNCCO)ccc2c1 [Compound 368]
EC50 [1]: < 100 nM
IC50 [2]: < 100 nM
EC50 [3]: 1000 to 10000 nM

COCCNCCOc1ccc2cc(C(=O)NC[C@H](O)CN3CCc4ccccc4C3)ccc2c1 [Compound 369]
EC50 [1]: < 100 nM
IC50 [2]: < 100 nM
EC50 [3]: 1000 to 10000 nM

CN(C)CCOc1ccc2cc(C(=O)NC[C@H](O)CN3CCc4ccccc4C3)ccc2c1 [Compound 370]
EC50 [1]: < 100 nM
IC50 [2]: < 100 nM
EC50 [3]: 1000 to 10000 nM

O=C(NC[C@H](O)CN1CCc2ccccc2C1)c1ccc(OCCN2CCCCC2)cc1 [Compound 371]
EC50 [1]: < 100 nM
IC50 [2]: < 100 nM
EC50 [3]: 1000 to 10000 nM

O=C(NC[C@H](O)CN1CCc2ccccc2C1)c1ccc(OCCCN2CCCC2)cc1 [Compound 372]
EC50 [1]: < 100 nM
IC50 [2]: < 100 nM
EC50 [3]: 101 to 1000 nM

O=C(NC[C@H](O)CN1CCc2ccccc2C1)c1ccc(OCCCN2CCC2)cc1 [Compound 373]
EC50 [1]: < 100 nM
IC50 [2]: < 100 nM
EC50 [3]: 1000 to 10000 nM

CC(C)NCCCOc1ccc(C(=O)NC[C@H](O)CN2CCc3ccccc3C2)cc1 [Compound 374]
EC50 [1]: < 100 nM
IC50 [2]: < 100 nM
EC50 [3]: 1000 to 10000 nM

O=C(NC[C@H](O)CN1CCc2ccccc2C1)c1cc(NC2CCC2)nc(N2CCCCC2)c1 [Compound 375]
EC50 [1]: < 100 nM
IC50 [2]: < 100 nM
EC50 [3]: 101 to 1000 nM

CN(C)[C@H]1C[C@H](Nc2cc(C(=O)NC[C@H](O)CN3CCc4ccccc4C3)ncn2)C1 [Compound 376]
EC50 [1]: < 100 nM
IC50 [2]: < 100 nM
EC50 [3]: 1000 to 10000 nM

CN(C)[C@H]1C[C@@H](Nc2cc(C(=O)NC[C@H](O)CN3CCc4ccccc4C3)ncn2)C1 [Compound 377]
EC50 [1]: 101 to 1000 nM
IC50 [2]: < 100 nM
EC50 [3]: 1000 to 10000 nM

O=C(NC[C@H](O)CN1CCc2ccccc2C1)c1ccnc(NC2COC2)c1 [Compound 378]
EC50 [1]: > 1000 nM
IC50 [2]: < 100 nM
EC50 [3]: > 20000 nM

Cc1cnc(NC2CN(S(C)(=O)=O)C2)cc1C(=O)NC[C@H](O)CN1CCc2ccccc2C1 [Compound 379]
EC50 [1]: < 100 nM
IC50 [2]: < 100 nM
EC50 [3]: 1000 to 10000 nM

CC(=O)N1CC(Nc2cc(C(=O)NC[C@H](O)CN3CCc4ccccc4C3)c(C)cn2)C1 [Compound 380]
EC50 [1]: < 100 nM
IC50 [2]: < 100 nM
EC50 [3]: 101 to 1000 nM

O=C(NC[C@H](O)CN1CCc2ccccc2C1)c1ccnc(Nc2cc[nH]n2)c1 [Compound 381]
EC50 [1]: < 100 nM
IC50 [2]: < 100 nM
EC50 [3]: 1000 to 10000 nM

O=C(NC[C@H](O)CN1CCc2ccccc2C1)c1ccnc(Nc2ccccn2)c1 [Compound 382]
EC50 [1]: < 100 nM
IC50 [2]: < 100 nM
EC50 [3]: 101 to 1000 nM

O=C(NC[C@H](O)CN1CCc2ccccc2C1)c1ccc(OCCN2CCCC2)cc1 [Compound 383]
EC50 [1]: < 100 nM
IC50 [2]: < 100 nM
EC50 [3]: 1000 to 10000 nM

CN(C)CCOc1ccc(C(=O)NC[C@H](O)CN2CCc3ccccc3C2)cc1 [Compound 384]
EC50 [1]: < 100 nM
IC50 [2]: < 100 nM
EC50 [3]: 1000 to 10000 nM

CCN(C)CCOc1ccc(C(=O)NC[C@H](O)CN2CCc3ccccc3C2)cc1 [Compound 385]
EC50 [1]: < 100 nM
IC50 [2]: < 100 nM
EC50 [3]: 1000 to 10000 nM

CNCCOc1ccc(C(=O)NC[C@H](O)CN2CCc3ccccc3C2)cc1 [Compound 386]
EC50 [1]: < 100 nM
IC50 [2]: < 100 nM
EC50 [3]: 1000 to 10000 nM

O=C(NC[C@H](O)CN1CCc2ccccc2C1)c1ccc(OCCN2CCOCC2)cc1 [Compound 387]
EC50 [1]: < 100 nM
IC50 [2]: < 100 nM
EC50 [3]: 101 to 1000 nM

O=C(NC[C@H](O)CN1CCc2ccccc2C1)c1ccc(OCCN2CCC2)cc1 [Compound 388]
EC50 [1]: < 100 nM
IC50 [2]: < 100 nM
EC50 [3]: 1000 to 10000 nM

CC(C)N(C)CCOc1ccc(C(=O)NC[C@H](O)CN2CCc3ccccc3C2)cc1 [Compound 389]
EC50 [1]: < 100 nM
IC50 [2]: < 100 nM
EC50 [3]: 1000 to 10000 nM

CC(C)NCCOc1ccc(C(=O)NC[C@H](O)CN2CCc3ccccc3C2)cc1 [Compound 390]
EC50 [1]: < 100 nM
IC50 [2]: < 100 nM
EC50 [3]: 1000 to 10000 nM

CCNCCOc1ccc(C(=O)NC[C@H](O)CN2CCc3ccccc3C2)cc1 [Compound 391]
EC50 [1]: < 100 nM
IC50 [2]: < 100 nM
EC50 [3]: 1000 to 10000 nM

CNCCCOc1ccc(C(=O)NC[C@H](O)CN2CCc3ccccc3C2)cc1 [Compound 392]
EC50 [1]: < 100 nM
IC50 [2]: < 100 nM
EC50 [3]: 1000 to 10000 nM

O=C(NC[C@H](O)CN1CCc2ccccc2C1)c1cc(NC2CCC2)nc(N2CCNCC2)c1 [Compound 393]
EC50 [1]: < 100 nM
IC50 [2]: < 100 nM
EC50 [3]: < 100 nM

CN1CCN(c2nc(NC3COC3)cc(C(=O)NC[C@H](O)CN3CCc4ccccc4C3)n2)CC1 [Compound 394]
EC50 [1]: < 100 nM
IC50 [2]: < 100 nM
EC50 [3]: < 100 nM

O=C(NC[C@H](O)CN1CCc2ccccc2C1)c1cc(NC2COC2)nc(N2CCOCC2)n1 [Compound 395]
EC50 [1]: < 100 nM
IC50 [2]: < 100 nM
EC50 [3]: < 100 nM

CCNCCCOc1ccc(C(=O)NC[C@H](O)CN2CCc3ccccc3C2)cc1 [Compound 396]
EC50 [1]: < 100 nM
IC50 [2]: < 100 nM
EC50 [3]: 1000 to 10000 nM

CC(C)N1CCN(c2cc(C(=O)NC[C@H](O)CN3CCc4ccccc4C3)cc(NC3CCC3)n2)CC1 [Compound 397]
EC50 [1]: < 100 nM
IC50 [2]: < 100 nM
EC50 [3]: < 100 nM

CC(=O)N1CCN(c2cc(C(=O)NC[C@H](O)CN3CCc4ccccc4C3)cc(NC3CCC3)n2)CC1 [Compound 398]
EC50 ([1]; In Cell Western methylation): < 100 nM
IC50 ([2]; PRMT5 biochemical assay): < 100 nM
EC50 ([3]; Cell Titer Glo): < 100 nM
